In the experiment the target is T1, HCV polymerase (Hepatitis C virus genotype 1b, UniProt P26663).
T1 construct: a region encoding NS5B (591 amino acids; J Virol 1991 Mar, 65(3), 1105-13) was amplified by PCR; 6 His (N); made in house; host or cells: Escherichia coli
In words: biochemical. Conditions: read-out: HCV polymerase inhibitory activity IC50.

Structures can show the parent of a compound that is named as a salt.

T1 sequence (P26663 2420-3010): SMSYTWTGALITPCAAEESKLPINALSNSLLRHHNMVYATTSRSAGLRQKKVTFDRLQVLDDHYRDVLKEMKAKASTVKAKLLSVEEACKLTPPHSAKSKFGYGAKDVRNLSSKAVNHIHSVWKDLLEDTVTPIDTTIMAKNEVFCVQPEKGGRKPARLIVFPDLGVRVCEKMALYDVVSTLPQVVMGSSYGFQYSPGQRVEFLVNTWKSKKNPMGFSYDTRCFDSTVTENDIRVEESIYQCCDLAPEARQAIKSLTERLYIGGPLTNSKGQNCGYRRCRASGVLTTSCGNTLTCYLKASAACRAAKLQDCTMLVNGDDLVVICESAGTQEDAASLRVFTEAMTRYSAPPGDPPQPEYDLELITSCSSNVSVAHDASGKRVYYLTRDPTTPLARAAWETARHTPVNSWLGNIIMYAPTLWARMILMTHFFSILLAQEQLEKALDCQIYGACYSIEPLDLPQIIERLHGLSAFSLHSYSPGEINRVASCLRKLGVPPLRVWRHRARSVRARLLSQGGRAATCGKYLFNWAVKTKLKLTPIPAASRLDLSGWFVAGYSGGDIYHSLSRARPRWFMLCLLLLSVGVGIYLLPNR

For `COc1ccc(-c2ccc(Cl)cc2)c(COc2ccc(-c3nc4cc(C(=O)O)ccc4n3C3CCCCC3)c(F)c2)c1` [Example 468, 2-[4-{2-(4-chlorophenyl)-5-methoxybenzyloxy}-2-fluorophenyl]-1-cyclohexylbenzimidazole-5-carboxylic acid], the concentration for half-maximal inhibition (IC50) amounted to 28 nM.
For `O=C(O)c1ccc2c(c1)nc(-c1ccc(OCCc3ccc4ccccc4c3)cc1)n2C1CCCCC1` [Example 85, 1-cyclohexyl-2-{4-[2-(2-naphthyl)ethoxy]phenyl}benzimidazole-5-carboxylic acid] the value was 170 nM; for `CCCN(C)C(=O)c1ccc(-c2ccc(Cl)cc2)c(COc2ccc(-c3nc4cc(C(=O)O)ccc4n3C3CCCCC3)c(F)c2)c1` [Example 385, 2-{4-[2-(4-chlorophenyl)-5-(N-methyl-N-propylcarbamoyl)-benzyloxy]-2-fluorophenyl}-1-cyclohexylbenzimidazole-5-carboxylic acid hydrochloride], 19 nM; for `CN(C)C(=O)c1ccc(-c2ccc(C(=O)N(C)C)cc2COc2ccc(-c3nc4cc(C(=O)O)ccc4n3C3CCCCC3)cc2)cc1` [Example 273, 2-{4-[3-dimethylcarbamoyl-6-(4-dimethylcarbamoylphenyl)-benzyloxy]phenyl}-1-cyclohexylbenzimidazole-5-carboxylic acid], 41 nM.
For `O=C(O)c1ccc(-c2ccc(Cl)cc2COc2ccc(-c3nc4cc(-c5nnn[nH]5)ccc4n3C3CCCCC3)c(F)c2)cc1` [Example 435, 2-{4-[2-(4-carboxyphenyl)-5-chlorobenzyloxy]-2-fluorophenyl}-1-cyclohexyl-5-tetrazol-5-ylbenzimidazole hydrochloride], the IC50 worked out at 12 nM.
For the compound `O=C(O)c1ccc2c(c1)nc(-c1ccc(Oc3cccc(C(F)(F)F)c3)cc1)n2C1CCCCC1` [Example 230, 1-cyclohexyl-2-[4-(3-trifluoromethylphenoxy)phenyl]-benzimidazole-5-carboxylic acid], the IC50 came to 170 nM.
For `CS(=O)(=O)N1CCC(COc2cccc(Oc3ccc(-c4nc5cc(C(=O)O)ccc5n4C4CCCCC4)cc3)c2)CC1` [Example 198, 1-cyclohexyl-2-{4-[3-{(1-methanesulfonyl-4-piperidyl)methoxy}-phenoxy]phenyl}benzimidazole-5-carboxylic acid] the value was 44 nM.
For `Cc1nc(-c2ccc(Cl)cc2)c(COc2ccc(-c3nc4cc(C(=O)O)ccc4n3C3CCCCC3)cc2)s1` [Example 218, 2-{4-[{4-(4-chlorophenyl)-2-methyl-5-thiazolyl}methoxy]phenyl}-1-cyclohexylbenzimidazole-5-carboxylic acid] the value was 33 nM; for `O=C(O)c1ccc2c(c1)nc(-c1ccc(OCc3cc(C(=O)N4CC[C@H](O)[C@H](O)C4)ccc3-c3ccc(Cl)cc3)cc1)n2C1CCCCC1` (stereo in doubt) [Example 348, 2-{4-[2-(4-chlorophenyl)-5-(3,4-dihydroxypiperidin-1-ylcarbonyl)benzyloxy]phenyl}-1-cyclohexylbenzimidazole-5-carboxylic acid hydrochloride], 13 nM; for `O=C(O)c1ccc2c(c1)nc(-c1ccc(OCCc3cccc(OCc4ccccc4)c3)cc1)n2C1CCCCC1` [Example 139, 2-{4-[2-(3-benzyloxyphenyl)ethoxy]phenyl}-1-cyclohexylbenzimidazole-5-carboxylic acid], 260 nM.
Turning to `O=C(O)c1ccc2c(c1)nc(-c1ccc(OCc3cccnc3-c3ccc(Cl)cc3)cc1)n2C1CCCCC1` [Example 234, 2-{4-[{2-(4-chlorophenyl)-3-pyridyl}methoxy]phenyl}-1-cyclohexylbenzimidazole-5-carboxylic acid dihydrochloride], the IC50 came to 22 nM.
For `O=C(O)c1ccc2c(c1)nc(-c1ccc(OCc3cc(C(=O)NCCc4ccncc4)ccc3-c3ccc(Cl)cc3)cc1)n2C1CCCCC1` [Example 325, 2-{4-[2-(4-chlorophenyl)-5-(2-pyridin-4-ylethylcarbamoyl)-benzyloxy]phenyl}-1-cyclohexylbenzimidazole-5-carboxylic acid dihydrochloride] the value was 19 nM.
On to `O=C(O)c1ccc2c(c1)nc(-c1ccc(OCc3ccncc3)cc1)n2C1CCCC1` [Example 49, 1-cyclopentyl-2-[4-(4-pyridylmethoxy)phenyl]benzimidazole-5-carboxylic acid hydrochloride], for which the IC50 came out at 940 nM.
For `CS(=O)(=O)Nc1ccc(-c2ccc(Cl)cc2)c(COc2ccc(-c3nc4cc(C(=O)O)ccc4n3C3CCCCC3)c(F)c2)c1` [Example 455, 2-[4-{2-(4-chlorophenyl)-5-(methylsulfonylamino)benzyloxy}-2-fluorophenyl]-1-cyclohexylbenzimidazole-5-carboxylic acid hydrochloride] the value was 15 nM; for `CC(=O)N1CCC(COc2ccccc2Oc2ccc(-c3nc4cc(C(=O)O)ccc4n3C3CCCCC3)cc2)CC1` [Example 175, 2-{4-[2-{(1-acetyl-4-piperidyl)methoxy}phenoxy]phenyl}-1-cyclohexylbenzimidazole-5-carboxylic acid], 290 nM; for `CCCNC(=O)c1ccc(-c2ccc(Cl)cc2)c(COc2ccc(-c3nc4cc(C(=O)O)ccc4n3C3CCCCC3)c(F)c2)c1` [Example 389, 2-{4-[2-(4-chlorophenyl)-5-(propylcarbamoyl)benzyloxy]-2-fluorophenyl}-1-cyclohexylbenzimidazole-5-carboxylic acid hydrochloride], 12 nM.
For `O=C(O)c1ccc2c(c1)nc(-c1ccc(OCc3sc(CN4CCC(O)CC4)nc3-c3ccc(F)cc3)cc1)n2C1CCCCC1` [Example 427, 2-{4-[{4-(4-fluorophenyl)-2-(4-hydroxypiperidin-1-ylmethyl)thiazol-5-yl}methoxy]phenyl}-1-cyclohexylbenzimidazole-5-carboxylic acid dihydrochloride] the value was 20 nM; for `O=C(O)c1ccc2c(c1)nc(-c1ccc(OCc3cc(Cl)ccc3-c3ccncc3)cc1)n2C1CCCCC1` [Example 315, 2-{4-[5-chloro-2-(4-pyridyl)benzyloxy]phenyl}-1-cyclohexylbenzimidazole-5-carboxylic acid hydrochloride], 28 nM; for `O=C(O)c1ccc2c(c1)nc(-c1ccc(Oc3cccc(OCc4ccc(C(F)(F)F)cc4)c3)cc1)n2C1CCCCC1` [Example 210, 1-cyclohexyl-2-{4-[3-(4-trifluoromethylbenzyloxy)phenoxy]phenyl}-benzimidazole-5-carboxylic acid], 310 nM.
For `O=C(O)c1ccc2c(c1)nc(-c1ccc(Oc3ccccc3OCC(=O)N3CCCCC3)cc1)n2C1CCCCC1` [Example 192, 1-cyclohexyl-2-{4-[2-(piperidinocarbonylmethoxy)phenoxy]-phenyl}benzimidazole-5-carboxylic acid] the value was 220 nM.
As for `O=C(O)c1ccc2c(c1)nc(-c1ccc(OCc3cc(Cl)ccc3-c3cc(Cl)cc(Cl)c3)cc1)n2C1CCCCC1` [Example 147, 2-{4-[3-chloro-6-(3,5-dichlorophenyl)benzyloxy]phenyl}-1-cyclohexylbenzimidazole-5-carboxylic acid], the IC50 was 310 nM.

These data come from patent US20040082635A1, “Fused cyclic compounds and medicinal use thereof” (priority 2001, published 2004).
